In the assay the target is T1, Human Polymorphonuclear Leukocyte Elastase (Homo sapiens, UniProt P08246).
T1 construct: Crude extract of human polymorphonuclear leukocytes (PMN) containing elastase activity; endogenous in cells; host or cells: human polymorphonuclear leukocytes (crude extract)
T1 sequence (P08246 30-247 limits assumed): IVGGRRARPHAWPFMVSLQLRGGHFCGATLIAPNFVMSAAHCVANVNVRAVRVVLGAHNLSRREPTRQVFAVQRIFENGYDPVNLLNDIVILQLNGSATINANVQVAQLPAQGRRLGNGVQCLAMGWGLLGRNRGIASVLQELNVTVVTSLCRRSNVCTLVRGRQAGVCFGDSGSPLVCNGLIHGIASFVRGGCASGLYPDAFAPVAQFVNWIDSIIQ
Nature of the assay: Inhibition of human polymorphonuclear leukocyte elastase via hydrolysis of N-t-Boc-alanyl-alanyl-prolylalanine-p-nitroanilide. It is filed as biochemical. Particulars: measured within 2 minutes, crude PMN extract; for inhibition at 5 µg/mL: Conc. of compound 5 μg/ml; for inhibition at 20 µg/mL: Conc. of compound 20 μg/ml; for inhibition at 50 µg/mL: Conc. of compound 50 μg/ml; for inhibition at 1 µg/mL: Conc. of compound 1 μg/ml; for inhibition at 2 µg/mL: Conc. of compound 2 μg/ml. Here is the method: Protocol--Enzyme Assays for the Inhibition of Human Polymorphonuclear Leukocyte Elastase Via Hydrolysis of N-t-Boc-alanyl-alanyl-prolylalanine-p-nitroanilide
0.05M TES (N-tris[hydroxymethyl]methyl-2-amino-ethanesulfonic acid) Buffer, pH 7.5.
0.2 mM N-t-Boc-alanyl-alanyl-Prolyl-Alanine-p-nitroanilide (Boc-AAPAN).
To prepare substrate, the solid (m.w. 550) was first dissolved in 10.0 ml DMSO. Buffer at pH 7.5 was then added to a final volume of 100 ml.
Crude extract of human polymorphonuclear leukocytes (PMN) containing elastase activity.
Inhibitors (thienamycin esters) to be treated dissolved in DMSO just before use.
To 1.0 ml of 0.2 mM Boc-AAPAN in a cuvette, 0.01-0.1 ml of DMSO with or without inhibitor was added. After mixing, a measurement was taken at 410 mμ to detect any spontaneous hydrolysis due to presence of test compound. 0.05 Milliliters of PMN extract was then added and the ΔOD/min at 410 mμ was measured and recorded. Beckman model 35 spectrophotometer was used.
The elastase activity in the crude PMN extract may vary from one preparation to another. A control of each new batch is run, and the volume added in the assay procedure is adjusted according to activity.

The results in this text go back to US4465687A, “Thienamycin derivatives as anti-inflammatory agents” (Merck & Co., Inc., priority 1982, dated 1984).

The inhibition is the relative decrease from the control value, in per cent. High values mean a strong effect, low ones a weak effect. In turn, `CCCC(=O)NCCSC1=C(C(=O)OCc2ccc([N+](=O)[O-])cc2)N2C(=O)[C@H]([C@@H](C)OC(C)=O)[C@H]2C1` [COCH2 C2 H5 / H / Ac / PNB] gave an inhibition at 5 µg/mL of 31%, an inhibition at 20 µg/mL of 69% and an inhibition at 50 µg/mL of 89%.
On to `CC(O)[C@H]1C(=O)N2C(C(=O)OCc3ccc([N+](=O)[O-])cc3)=C(SCCNC(=O)Cc3ccccc3)C[C@H]12` (stereo partly drawn) [COCH2 C6 H5 / H / H / PNB], for which at 1 µg/mL the inhibition was 47%, the inhibition at 5 µg/mL was 84%, 20 µg/mL produced 95% inhibition and the inhibition at 50 µg/mL came to 100%.
In the case of `CC(O)[C@H]1C(=O)N2C(C(=O)OCc3ccc([N+](=O)[O-])cc3)=C(SCCN3C(=O)c4ccccc4C3=O)C[C@H]12` (stereo partly drawn) [phthaloyl / H / PNB], the inhibition at 1 µg/mL was determined as 76%, the inhibition at 2 µg/mL was found to be 86%, the inhibition at 5 µg/mL worked out at 93% and the inhibition at 20 µg/mL amounted to 100%. Under “Conc. of compound .5 μg/ml”, testing at 0.5 µg/mL gave an inhibition of 50%.
With `CC(O)[C@H]1C(=O)N2C(C(=O)OCc3ccccc3)=C(SCCN3C(=O)c4ccccc4C3=O)C[C@H]12` (stereo partly drawn) [phthaloyl / H / benzyl], testing at 1 µg/mL gave an inhibition of 39%, the inhibition at 2 µg/mL came to 56%, 5 µg/mL produced 89% inhibition and the inhibition at 20 µg/mL came to 100%.
With `CC(O[Si](C)(C)C)[C@H]1C(=O)N2C(C(=O)OCc3ccc([N+](=O)[O-])cc3)=C(SCCN3C(=O)c4ccccc4C3=O)C[C@H]12` (stereo partly drawn) [phthaloyl / TMS / PNB], the inhibition at 1 µg/mL was determined as 38%, the inhibition at 2 µg/mL amounted to 83% and the inhibition at 50 µg/mL was 96%. Under “Conc. of compound 10 μg/ml”, this molecule showed an inhibition at 10 µg/mL of 95%. The molecule also displayed an inhibition at 25 µg/mL (Conc. of compound 25 μg/ml) of 95%.
